# Laboratory results: US12440471B2, “Compositions and methods for the treatment of bronchopulmonary dysplasia (BPD) and BPD-associated pulmonary hypertension” (AyuVis Research, Inc., priority 2021, dated 2025)
# Experiments:
# [1] = PK study in rat pups by SC or IV (plasma, BALF); type: in vivo
# Description: Pharmacokinetic (PK) Profile of AVR-48 (compound 8). The PK studies of AVR-48 were developed and designed in-house, by high performance liquid chromatography (HPLC), in both mouse and rat pups by IV, IP and IN dosing, to check the bioavailability of the drug formulated as solution, suspension or nanoparticle encapsulation in plasma, broncho-alveolar lavage fluid (BALF) and lung tissues.
# A sustained level of AVR-48 was observed only where T1/2 was not estimable. For the IV dosed animals only, maximum concentration was followed by decline on PK Day 1 but was followed by sustained level of AVR-48 on PK Day 3. T1/2 was also not estimable. […] In summary, exposure to AVR-48 increased for 100 mg/kg/day for both routes after 3 days of twice daily administration but not for the 150 mg/kg/day groups.
# Animals. C57BL/6J mice were purchased from The Jackson Laboratory (Bar Harbor, ME, USA) and were maintained in a breeding colony at Drexel University, Philadelphia, PA, USA. Animal procedures were performed in accordance with the NIH Guide for the Care and Use of Laboratory Animals and were approved by the Institutional Animal Care and Use Committee (IACUC) of Drexel University Philadelphia, PA (Protocol No. 20706). Neonatal rat pups born from female pregnant Sprague Dawley Crl:CD (SD) rats (Charles River Laboratories, St-Constant, QC, Canada) were used for the toxicology and PK studies to evaluate safety, determine the maximum tolerated dose (MTD) and the PK profile of AVR-48. A minimum 6-day acclimation period was allowed between receipt of the animals and the start of treatment to accustom the rats to the laboratory environment. All rat studies were approved by the IACUC of ITR Laboratories, Canada (Protocol No. 74691).
# Formulation of AVR-48 for efficacy and toxicokinetic studies. For the mouse dose response efficacy studies, AVR-48 was reconstituted in 0.9% sterile normal saline to give a final dose concentration of […] as a colorless solution, and injected IP (30 μl) on P2 and P4. The PLGA encapsulated AVR-48 or the GFP-tagged analog was resuspended in deionized sterile water to make a nanosuspension with final dose concentration of 0.025, 0.05 and 0.11 mg/kg/drop. The surfactant Curosurf® (Cheisi Parma, Italy), available commercially, was delivered IN at a volume of 3 μl per nostril, on P2 and P4. For the toxicokinetic study of AVR-48 in rat pups, a formulation of 10% DMSO, 20% tetraglycol, 20% PEG 400, and 50% sterile water was made fresh before administration (Shah, Das et al. 2021).
# pre-term lamb BPD model = assay: Pre-term lamb BPD model: respiratory severity score; type: in vivo
# Description: A unique PT lamb model, developed by Dr. Albertine (University of Utah), was used to emulate the clinical setting for PT human infants with respiratory failure related to premature birth before the lungs are mature enough to support extra-uterine life. Both the PT lamb model and PT human infants are whole-organism physiological beings that have the setting of PT birth and prolonged ventilation support with oxygen-rich gas because of respiratory failure related to lung structural and functional immaturity, including surfactant deficiency. Ventilation support with oxygen-rich gas is for days, weeks, months, and is associated with co-morbidities of the brain, liver, distal ileum, and kidney injury, and inadequate nutrition and poor postnatal growth. This PT lamb model for BPD continues to provide mechanistic insights during the evolution of BPD (Joss-Moore, Metcalfe et al. 2010), development of multiple-organ dysfunction (Albertine 2012, Abdullah, Seidel et al. 2016), and long-term structural and functional impairments (Dahl, Bowen et al. 2018).
# A dose range-finding study was conducted with the goal of treating two PT lambs with either a vehicle control or low, mid, and high doses of AVR-48 (compound 8) by twice daily intravenous infusions during 6 to 7 days of mechanical ventilation, followed by transition to noninvasive respiratory support (NIS) for 3 days, for a total of 10 days of management of these PT lambs. Compound 8 was not given during the period of noninvasive respiratory support to assess short-term persistence of effect of compound 8. The PK and PD parameters for compound 8 were also determined.
# The modified PT lamb model used 6 d to 7 d of mechanical ventilation for respiratory management to identify temporal pathogenesis of the disease. […]
# A total 9 lambs were used for this study. […] The PK parameters were calculated following both non-Compartmental Pharmacokinetic Modeling and population Pharmacokinetic Modeling as described by Roberts et al previously (Roberts, Stockmann et al. 2016). […] The blood samples also were analyzed for hematology and liver enzymes. […]
compound,measurement,setting,value
CC(=O)N[C@@H]1C(Oc2ccc([N+](=O)[O-])cc2)OC(CO)C(O)C1O (some centres unmarked) [AVR-48],accumulation ratio using AUC(0-t),"[1]; BALF, IV dosed animals",2.04
same,decline of plasma concentration,[1]; IV dosed animals,declined in a bi-exponential fashion
same,Tmax (maximum plasma concentration),"[1]; Sprague Dawley Crl:CD, rat, in vivo, 150 mg/kg/day",60 min
same,Tmax,"[1]; Sprague Dawley Crl:CD, rat, in vivo, 150 mg/kg/day, Tmax (maximum plasma concentration)",30 min
same,Tmax,"[1]; Sprague Dawley Crl:CD, rat, in vivo, Tmax",15 to 60 min
same,AUC(0-t),"[1]; Sprague Dawley Crl:CD, rat, in vivo, iv, AUC(0-t)",4200 ng·h/mL
same,Cmax,"[1]; Sprague Dawley Crl:CD, rat, in vivo, maximum concentration (Cmax)",891 to 1070 ng/mL
same,accumulation in plasma,[1]; after 3 days of twice daily administration,no accumulation of the drug
same,Respiratory Severity Score (RSS),"pre-term lamb BPD model; 3.0 mg/kg IV, n=4, lowest RSS",2.4
same,Respiratory Severity Score (RSS) vs placebo,"pre-term lamb BPD model; 1.0 and 3.0 mg/kg IV, 2/d, 7 days",Significant improvement
same,highest efficacious dose (RSS),pre-term lamb BPD model; IV twice daily,3.0 mg/kg
